Earlier results on one compound are cited in PMC10041537, “Molecular origins of mutational spectra produced by the environmental carcinogen N-nitrosodimethylamine and SN1 chemotherapeutic agents” (NAR Cancer, 2023).

This series concerns C57BL/6J mice. On the set-up: method as in PMID 9500198. Conditions: cited from earlier work.
[1] abbreviates: C57BL/6J male mice, neonatal model.

SMILES strings stand for the structures.

As for `CN(C)N=O` [NDMA, N-nitrosodimethylamine], under setting [1], the “incidence of hepatic tumors” value is on record as ~80% and the “incidence of lung tumors” value is on record as 7%. Also, the maximum tolerated dose (total dose, i.p., neonatal mice) is given as 10.5 mg/kg.
